Experiments:
[1] = tested on: functional Wnt production from mouse L-Wnt3a cells; assay: Wnt reporter assay (L-Wnt3a conditioned media on LEADING LIGHT Wnt Reporter Cell Line); format: cell-based
Description: Reporter Assay: Media from L-Wnt3a cells (L cells overexpressing Wnt3a; ATCC CRL-2647) treated with a concentration-series of RXC004, was incubated with the LEADING LIGHT Wnt Reporter Cell Line (Enzo life sciences; ENZ-61002-0001). Luciferase was detected using the ONE-Glo Luciferase Assay System (Promega E6120), data were normalized to DMSO-treated controls and IC50 values determined. Recombinant Wnt3a (Bio-Techne #1324-WN-010) was used at 1 μg/mL. β-catenin expression: L-Wnt3a cells were treated with RXC004 (100 nmol/L) or DMSO (0.1%) for 24 hours. Cellular β-catenin protein levels were quantified by staining with anti-β-catenin (AlexaFluor488, BD 562505) and assessment using an Agilent Novocyte-3000 flow cytometer.

[2] = Permeability in Caco-2 cells; format: in vitro ADME; details: human
Description: Permeability of RXC004 was assessed in MDR1-MDCKII (Netherlands Cancer Institute) and Caco-2 cells (Merck Life Sciences). RXC004 (10 μmol/L) was added to either apical or basolateral chamber for 2 hours at 37°C, then an aliquot from the opposite side of the monolayer was removed and quantified by LC/MS-MS. Apparent permeability (Papp) was calculated according to standard practice ([20]).

Hepatocyte stability [3] = format: in vitro ADME, dog (Beagle); details: Dog, 1 μmol/L
Description: (§1) Metabolic stability: liver microsomes and hepatocytes from human, mouse (CD1), rat (Sprague Dawley) and dog (Beagle) were obtained from Invitrogen. RXC004 (1 μmol/L) was incubated at 37°C with microsomes (0.5 mg · mL^−1) or hepatocytes (0.5 × 10^6 cells · mL^−1). Aliquots were removed at 0–45 minutes and RXC004 concentrations determined by LC/MS-MS analysis. Half-life (T1/2) and intrinsic clearance (CLint) were calculated as described in ref. [18].

Hepatocyte stability [4] = format: in vitro ADME; details: Human, 1 μmol/L
Description: as §1

Microsomal stability [5] = format: in vitro ADME, rat (Sprague Dawley); details: Rat, 1 μmol/L
Description: as §1

Microsomal stability [6] = format: in vitro ADME, mouse (CD1); details: Mouse, 1 μmol/L
Description: as §1

Microsomal stability [7] = format: in vitro ADME; details: Human, 1 μmol/L
Description: as §1

In vivo pharmacokinetics = assay: In vivo pharmacokinetics; parameters: species or system mouse (male CD1); details: mouse
Description: In vivo pharmacokinetics: RXC004 was dosed to male Sprague Dawley rats, male CD1 mice or dog (beagle) by intravenous and oral routes. Bioanalysis of blood and plasma samples was performed by LC/MS-MS using a Waters TQS or TQMS mass spectrometer. Pharmacokinetic information was derived using WinNonlin software (Certara).

HCT116 cells [8] = assay: Wnt-responsive gene expression (qPCR); format: cell-based, human
Source text: (§2) The expression of nine potential Wnt-responsive genes was screened across cell lines by treatment with RXC004 (10 nmol/L) or DMSO (0.1%) for 3 days. RNA was extracted (Aurum RNA isolation kit, Bio-Rad #372-6820) and gene expression assessed by Taqman qPCR relative to appropriate housekeeping genes on the Bio-Rad CFX real-time system.
(§3) For concentration–response effects on gene expression, Single-Shot Cell Lysis kit (Bio-Rad #172-5080) was used for RNA extraction, data were normalized to DMSO-treated controls, and IC50 values determined. For cell-cycle analysis, the cancer cell line panel was treated with RXC004 (100 nmol/L) or DMSO (0.1%) for 3 days. Cell-cycle profiles were determined by staining with propidium iodide (Thermo Fisher Scientific #P3566) and phospho-Ser10-Histone-H3 (AlexaFluor-647, BioLegend #650806), and quantified using an Agilent Novocyte-3000 flow cytometer. For in vitro growth curve analysis, HPAF-II and SNU-1411 cells were seeded in 96-well plates at 2,000 cells/well and imaged on the IncuCyte (Sartorius) at 10× magnification with 4 fields of view per well. Total cell object count over time was calculated using the Adherent Cell-by-Cell analysis module.

WiDR cells = assay: Wnt-responsive gene expression (qPCR); format: cell-based, human
Source text: as §2, §3

[9] = tested on: cell lines with RNF43 LoF mutations and RSPO3 fusions; assay: Wnt-responsive gene expression (qPCR); format: cell-based, human; details: 10 nmol/L, 3 days
Source text: as §2, §3

HCT116 cells [10] = assay: In vitro glucose uptake; format: cell-based, human; details: HCT116, RXC004 100 nmol/L, 48 hours
Description: (§4) SNU-1411, HPAF-II, and HCT116 cells were treated in vitro for 48 hours with RXC004 (100 nmol/L), Latrunculin A (Abcam #ab144290; 500 nmol/L), or DMSO prior to analysis using the Glucose Uptake Glo Assay Kit (Promega #J1341). The ATPlite assay was used to control for cell viability, confirming RXC004 has no effect on proliferation at this 48 hours timepoint.

HPAF-II cells = assay: In vitro glucose uptake; format: cell-based, human; details: Homo sapiens, RXC004 100 nmol/L, 48 hours
Description: as §4

SNU-1411 cells = assay: In vitro glucose uptake; format: cell-based, human; details: Homo sapiens; SNU-1411, RXC004 100 nmol/L, 48 hours
Description: as §4

[11] = male, CD1, in vivo, po, 5 mg/kg p.o.

Which IC50 ([1]; Mus musculus, L Wnt-3A, L-Wnt3a cells treated with concentration-series, read-out: IC50, β-catenin responsive luciferase reporter activated by conditioned media) does the source give for Cc1c(-c2ccnc(C(F)(F)F)c2)ncn1CC(=O)Nc1ccc(-c2cnccn2)cn1 [RXC004, 2-[5-methyl-4-[2-(trifluoromethyl)-4-pyridyl]imidazol-1-yl]-N-(5-pyrazin-2-yl-2-pyridyl)acetamide] here?
The IC50 was 64 pM.

What about the “effect on downstream Wnt signaling (rescue by recombinant Wnt3a)” value ([1]; recombinant Wnt3a 1 μg/mL) of the same compound?
Its value is “no effect on downstream Wnt signaling”.

And the Papp A→B at 2 h, 10 μmol/L ([2]; apical to basolateral, read-out: Caco-2 PappA-B)?
The Papp A→B at 2 h, 10 μmol/L was 23.6 ×10⁻⁶ cm/s.

And the Papp B→A at 2 h, 10 μmol/L ([2]; basolateral to apical, read-out: Caco-2 PappB-A)?
Its Papp B→A at 2 h, 10 μmol/L is 21.8 ×10⁻⁶ cm/s.

What about the “Hepatocyte stability: CLint” value (Hepatocyte stability [3]) of the same compound?
Its value is 12.5 μL minute^−^1 · 10^6 cells^−^1.

And the “Hepatocyte stability: CLint” value (Hepatocyte stability [4])?
The value was <3.0 μL minute^−^1 · 10^6 cells^−^1.

What about the “Microsomal stability: CLint” value (Microsomal stability [5]) of the same compound?
Its value is 7.8 μL minute^−^1 · mg^−^1.

What about the “Microsomal stability: CLint” value (Microsomal stability [6]) of the same compound?
The value was 3.9 μL minute^−^1 · mg^−^1.

And the “Microsomal stability: CLint” value (Microsomal stability [7])?
The value was 6.0 μL minute^−^1 · mg^−^1.

And the clearance (In vivo pharmacokinetics; male, CD1, in vivo, intravenous, 2 mg/kg, dose i.v./p.o. 2/5 mg/kg)?
The clearance was 2.9 mL/min/kg.

What about the Vd (In vivo pharmacokinetics; male, CD1, in vivo, intravenous, 2 mg/kg, dose i.v./p.o. 2/5 mg/kg, read-out: Vss) of the same compound?
Its Vd is 0.4 L/kg.

And the AUC(0-inf) (In vivo pharmacokinetics; [11])?
The AUC(0-inf) was 33.9 µM·h.

What about the Cmax (In vivo pharmacokinetics; [11]) of the same compound?
The Cmax was 7.6 µM.

And the concentration at 24 h (In vivo pharmacokinetics; male, CD1, in vivo, po, 5 mg/kg p.o., read-out: C24h (p.o.))?
The concentration at 24 h was 0.002 µM.

What about the half-life (In vivo pharmacokinetics; male, CD1, in vivo, dose i.v./p.o. 2/5 mg/kg, read-out: T½ (converted)) of the same compound?
Its half-life is 1.8 h.

What about the “F (p.o.)” value (In vivo pharmacokinetics; dose i.v./p.o. 2/5 mg/kg) of the same compound?
The value was 48%.

And the “Wnt pathway target expression” value (HCT116 cells [8]; HCT116, 10 nmol/L, 3 days)?
Its value is “Minimal effects”.

What about the IC50 (HCT116 cells [8]; Homo sapiens, HCT-116, HCT116, read-out: IC50, c-Myc mRNA expression) of the same compound?
Its IC50 is > 10 µM.

What about the IC50 (WiDR cells; Homo sapiens, WiDr, read-out: IC50, c-Myc mRNA expression) of the same compound?
The IC50 was > 10 µM.

What about the “Wnt pathway target expression” value (WiDR cells; WiDR, 10 nmol/L, 3 days) of the same compound?
The value was “Minimal effects”.

What about the “mRNA expression of Wnt pathway targets Axin2, RNF43, c-Myc, CD44, MMP7” value [9] of the same compound?
Its value is “downregulated mRNA expression of Wnt pathway targets”.

And the “mucin mRNA” value [9]?
The value was “marked increase in mucin mRNA”.

And the glucose uptake (HCT116 cells [10])?
The glucose uptake was “had no effect”.

And the inhibition at 0.1 µM (HPAF-II cells)?
Its inhibition at 0.1 µM is > 50%.

What about the inhibition at 0.1 µM (SNU-1411 cells) of the same compound?
The inhibition at 0.1 µM was > 50%.

Source: publication PMC10010340, “The Wnt Pathway Inhibitor RXC004 Blocks Tumor Growth and Reverses Immune Evasion in Wnt Ligand–dependent Cancer Models” (Cancer Research Communications, 2022)
